# Data: patent US8940740B2, “Small molecule inhibitors of bacterial motility and a high throughput screening assay for their identification” (priority 2010, dated 2015)
# Legend:
# [1] = test system: Vibrio cholerae strain C7258; assay: Growth of strain C7258 in broth containing test compound; format: cell-based; settings: strain C7258, LB medium; Q24DA 10 μg/mL (FIG. 2)
# [2] = test system: cholera toxin and toxin-co-regulated pilus production by strain C7258; format: cell-based, Vibrio cholerae
# [3] = test system: Vibrio cholerae strain C7258; assay: Growth with PMF blocked by CCCP (Na+ bioenergetics); format: cell-based; settings: LB pH 8.6, 0.3 M NaCl, CCCP 5 μM, Q24DA 10 μg/mL
# [4] = test system: Vibrio cholerae strain C7258; assay: Bacterial viability/toxicity readout with alamarBlue in 384-well soft agar HTS assay; format: cell-based; settings: for IC50: Vibrio cholerae, C7258, toxicity of compound to bacteria as measured by alamarBlue, read-out: Inhibition IC50
# [5] = test system: Vibrio cholerae strain C7258; assay: Bacterial motility in 384-well soft agar HTS assay, off-site OD615 reading; format: cell-based; settings: for IC50: Vibrio cholerae, C7258, inhibition of bacterial motility, optical density read off-site from inoculation point, read-out: Motility OD IC50; for Control average OD615 in pilot screen: pilot screen control wells
# [6] = test system: V. cholerae biofilm formation; format: cell-based, Vibrio cholerae
# [7] = test system: V. cholerae 0395, V. parahaemolyticus, V. vulnificus; assay: Swarm agar plates with different pathogenic Vibrios; format: cell-based, Vibrio; settings: polar (SMF) vs lateral (PMF) flagellum
# From the text: V. cholerae and V. vulnificus make a single polar flagellum (Fla) powered by sodium motive force (SMF). […] (A) V. cholerae 0395; (B) V. parahaemolyticus B22 (Fla^+ Laf^+); (C) V. parahaemolyticus LM5674 (Fla^+ Laf^+); (D) V. parahaemolyticus LM1017 (Fla^+ Laf^−); (E) V. parahaemolyticus LM5392 (Fla^− Laf^+); (F) V. parahaemolyticus 7890 (Fla^+ Laf^−); (G) V. vulnificus LAM624.
# [8] = test system: polar flagellum / flagellin FlaA of V. cholerae strain C7258; assay: Flagellum assembly by transmission electron microscopy and FlaA western blot; format: cell-based, Vibrio cholerae
# [9] = test system: Vibrio cholerae strain C7258; assay: Swarm agar plates stabbed with saturated cultures; format: cell-based; settings: swarm agar stabbed with saturated culture of strain C7258
# [10] = assay validation, phenamil at 100 μM
SMILES,IC50 [4],IC50 [5],also measured
Cc1ccc(C)c(Nc2nc(NCCO)c3ccccc3n2)c1 [AB00343282],25.7 µg/mL,8.76 µg/mL,"Effect on growth rate in broth [1]: no effect on growth rate; V. cholerae virulence gene expression [2]: inhibits V. cholerae virulence gene expression; Effect on growth inhibition by blocking the PMF [3]: enhances the inhibitory effect of blocking the PMF; Biofilm formation [6]: negative effect on biofilm formation; Flagellum specificity among pathogenic Vibrios [7]: specific for the polar flagellum powered by SMF; Level of expression of major flagellin protein FlaA ([8]; Western blot analysis): nor did it affect; Expression, secretion and assembly of wild type flagellum ([8]; transmission electron microscopy): does not inhibit; Motility in swarm agar (spread from inoculation site) ([9]; listed as Q24DA): motility inhibition; Motility in swarm agar (spread from inoculation site) ([9]; listed as quinazoline 2,4 diamine): completely abolished motility"
Cc1cc(C)cc(Nc2nc(NCC3CCCO3)c3ccccc3n2)c1 (stereo not drawn) [compound 27929],6.11 µg/mL,6.89 µg/mL,–
COc1ccccc1Nc1nc(NCCO)c2ccccc2n1 [compound 27916],38.1 µg/mL,49.5 µg/mL,–
OCCNc1nc(Nc2ccccc2O)nc2ccccc12 [compound 27911],34.2 µg/mL,29.5 µg/mL,–
c1coc(CNc2nc(NCC3CCCO3)c3ccccc3n2)c1 (stereo not drawn) [compound 27926],35.6 µg/mL,24.7 µg/mL,–
COc1ccc(Nc2nc(N3CCCC3)nc3ccccc23)c(OC)c1 [compound 27301],82 µg/mL,46.6 µg/mL,–
O=[N+]([O-])c1ccc(N2CCN(c3nc(N4CCN(CCO)CC4)nc4ccccc34)CC2)cc1 [compound 27310],55.4 µg/mL,77.2 µg/mL,–
Fc1ccccc1Nc1nc(NCc2ccccc2)c2ccccc2n1 [compound 27299],100 µg/mL,6.37 µg/mL,–
OCCNc1nc(Nc2ccc3c(c2)OCO3)nc2ccccc12 [compound 27919],29.8 µg/mL,10.8 µg/mL,–
Oc1ccccc1Nc1nc(NCC2CCCO2)c2ccccc2n1 (stereo not drawn) [compound 27928],19.4 µg/mL,16.5 µg/mL,–
Cc1ccc(Nc2nc(NCc3ccco3)c3ccccc3n2)cc1 [compound 27296],11.1 µg/mL,3.77 µg/mL,–
c1ccc(CN2CCN(c3nc(NCc4ccco4)c4ccccc4n3)CC2)cc1 [compound 27307],37.9 µg/mL,34.9 µg/mL,–
OCCNc1nc(Nc2ccccc2F)nc2ccccc12 [compound 27912],14.4 µg/mL,4.89 µg/mL,–
OCCNc1nc(NCCc2cccs2)nc2ccccc12 [compound 27917],27 µg/mL,19.7 µg/mL,–
FC(F)(F)c1cccc(Nc2nc(NCC3CCCO3)c3ccccc3n2)c1 (stereo not drawn) [compound 27930],81.2 µg/mL,7.59 µg/mL,–
OCCNc1nc(Nc2cccc(O)c2)nc2ccccc12 [compound 27910],47 µg/mL,22.2 µg/mL,–
Cc1ccc(Nc2nc(NCCO)c3ccccc3n2)c(C)c1 [compound 27918],15.6 µg/mL,6.1 µg/mL,–
Oc1ccccc1Nc1nc(NCc2ccco2)c2ccccc2n1 [compound 27297],81.9 µg/mL,37.8 µg/mL,–
"NC(=Nc1ccccc1)NC(=O)c1nc(Cl)c(N)nc1N [phenamil, reference compound]",–,–,"Effect on viability (alamarBlue reading) [4, 10]: little effect on viability; Effect on motility (OD615 reading) [5, 10]: inhibitory effect on motility; Control average OD615 in pilot screen [5]: Ave-0.10 OD615, CV-3.2"
Cc1cc(C)cc(Nc2nc(NCCO)c3ccccc3n2)c1 [compound 27914],10.1 µg/mL,6.96 µg/mL,–
Cc1ccc(O)c(Nc2nc(NCCO)c3ccccc3n2)c1 [compound 27915],23 µg/mL,29.9 µg/mL,–
"CN(C)[C@@H]1C(O)=C(C(N)=O)C(=O)[C@@]2(O)C(O)=C3C(=O)c4c(O)cccc4[C@@](C)(O)[C@H]3C[C@@H]12 [tetracycline, reference compound]",–,–,"Control average OD615 in pilot screen [5]: Ave-0.10 OD615, CV-3.6"
COc1ccc(C)cc1Nc1nc(N)c2ccccc2n1 [compound 27284],> 100 µg/mL,81.2 µg/mL,–
OCCNc1nc(NCc2ccco2)nc2ccccc12 [compound 27908],> 100 µg/mL,45.6 µg/mL,–
